Laboratory results published in patent US20210330611A1, “THERAPY FOR NEUROLOGICAL DISEASES/DISORDERS” (priority 2020, published 2021).
pIC50: −log10 of the molar value. Where a name gives a salt, the structure may show the parent alone. Read-outs that look alike come from different tables or passages of the source.

Key:
[1] = system: fibrin-induced microglia activation; assay: Image-based assay of fibrin-induced microglia activation (HTS and dose response); type: cell-based, rat; settings: for inhibition at 10 µM / Fibrin % inhibition: primary microglia HTS, fibrin stimulation; for inhibition at 10 µM: read-out: Fibrin % inhibition; for IC50: read-out: Fibrin IC50 (uM) (Suppl. Table 7)
[2] = system: LPS-induced microglia activation; assay: Image-based assay of LPS-induced microglia activation (HTS and dose response); type: cell-based, rat; settings: for inhibition at 10 µM / LPS % inhibition: primary microglia HTS, LPS stimulation; for inhibition at 10 µM: read-out: LPS % inhibition; for IC50: read-out: LPS IC50 (uM) (Suppl. Table 7)
[3] = system: fibrin- and LPS-induced microglia activation; assay: cells; type: cell-based, rat
[4] = system: primary rat microglia; assay: Cell toxicity (dead cells, size <150 μm2) in LPS assay; settings: for LPS % cell toxicity: primary microglia HTS, LPS stimulation; for IC50: read-out: Cell Toxicity IC50 (uM) [LPS assay]
[5] = system: primary rat microglia; assay: Cell toxicity (dead cells, size <150 μm2) in coated fibrin (cFib) assay; settings: for Fibrin % cell toxicity: primary microglia HTS, fibrin stimulation; for IC50: read-out: Cell Toxicity IC50 (uM) [cFib assay];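 for Fibrin % cell toxicity: share of dead cells sized under 150 µm2 at 10 µM in fibrin-stimulated microglia HTS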
[6] = Rattus norvegicus, Microglia, increased cell size (>800 μm^2) as marker of activation
[7] = Rattus norvegicus, Microglia, 48 h, increased cell size (>800 μm^2) as marker of activation
[8] = quadrant by fibrin and LPS inhibition in HTS of 1907 compounds
[9] = decreased size (<150 μm^2) as marker of toxicity
[10] = increased cell size (>800 μm^2) as marker of activation
[11] = Rattus norvegicus, Microglia, activation = cell size >800 μm2
[12] = Rattus norvegicus, Microglia, 48 h, activation = cell size >800 μm2

Row | SMILES | inhibition at 10 µM [1, 6] | inhibition at 10 µM [2, 7] | Quadrant (FIG. 5b) [3, 8] | LPS % cell toxicity [4, 9] | Fibrin % cell toxicity [5, 9] | Fibrin % inhibition [1, 10] | LPS % inhibition [2, 10] | other results
1 | C[C@H]1O[C@@H](O[C@H]2CC[C@@]3(C)[C@H](CC[C@@H]4[C@@H]3C[C@@H](O)[C@]3(C)[C@@H](C5=CC(=O)OC5)CC[C@]43O)C2)C[C@H](O)[C@@H]1O[C@H]1C[C@H](O)[C@H](O[C@H]2C[C@H](O)[C@H](O[C@@H]3O[C@H](CO)[C@@H](O)[C@H](O)[C@H]3O)[C@@H](C)O2)[C@@H](C)O1 [Deslanoside] | -3% | 67% | Q1 | 1% | 1% |  |  | 
2 | CC1(C)O[C@@H]2C[C@H]3[C@@H]4CCC5=CC(=O)C=C[C@]5(C)[C@H]4[C@@H](O)C[C@]3(C)[C@]2(C(=O)CO)O1 [Desonide] | 108% | 112% | Q2 | 5% | 17% |  |  | 
3 | C[C@@H]1C[C@H]2[C@@H]3CCC4=CC(=O)C=C[C@]4(C)[C@@]3(F)[C@@H](O)C[C@]2(C)[C@H]1C(=O)CO [Desoximetasone] | 101% | 91% | Q2 | 3% | 5% |  |  | 
4 | C[C@@H]1C[C@H]2[C@@H]3CCC4=CC(=O)C=C[C@]4(C)[C@@]3(F)[C@@H](O)C[C@]2(C)[C@H]1C(=O)CO [Desoxymetasone] |  |  | Q2 | 3% | 3% | 108% | 105% | 
5 | CCCCC[C@H](O)/C=C/[C@H]1[C@H](O)CC(=O)[C@@H]1C/C=C\CCCC(=O)O [Dinoprostone] | 102% | 85% | Q2 | 2% | 9% |  |  | 
6 | Cc1c(N(C)CS(=O)(=O)[O-])c(=O)n(-c2ccccc2)n1C.[Na+] [Dipyrone] |  |  | Q2 | 36% | 26% | 106% | 101% | 
7 | CCn1cc(C(=O)O)c(=O)c2cc(F)c(N3CCNCC3)nc21 [Enoxacin] | 113% | 119% | Q2 | 12% | 84% |  |  | 
8 | COC(=O)[C@@H]1CC2=CC(=O)CC[C@]2(C)[C@@]23O[C@@H]2C[C@@]2(C)[C@@H](CC[C@@]24CCC(=O)O4)[C@H]13 [Eplerenore, reference compound] |  |  | Q2 | 2% | 2% | 63% | 69% | Fibrin Selectivity [1]: 8; Fibrin Selectivity (LOG10) [1]: 0.88; pIC50 ([1]; Table 1, dose response 0.001-20 μM, triplicates, primary rat microglia, 48 h, read-out: Fibrin IC50): 5.52; IC50 ([1]; Table 3): 3 µM; pIC50 ([1]; dose response, fibrin-induced microglia activation, read-out: Fibrin IC50): 5.52; IC50 ([1]; fibrin-induced microglia activation, dose response): 3 µM; IC50 ([2]; LPS-induced microglia activation, dose response): > 20 µM; pIC50 ([2]; Table 1, dose response 0.001-20 μM, triplicates, primary rat microglia, 48 h, read-out: LPS IC50): < 4.70; IC50 ([2]; Table 3): > 20 µM; pIC50 ([2]; dose response, LPS-induced microglia activation, read-out: LPS IC50): < 4.70; Hit ([3]; HTS hit classification): HIT (Hits were defined as molecules that exhibited greater than 50% inhibition of either fibrin or LPS activation); Quadrant (FIG. 5b) ([3]; HTS of 1907 compounds, quadrant by fibrin and LPS inhibition): Q2; Quadrant (FIG. 5b) ([3]; Table 1, screen at 10 μM): Q2; Cherry-picked Hit (Suppl. Table 7) ([3]; Table 3): HIT (Hits were defined as molecules that exhibited greater than 50% inhibition of either fibrin or LPS activation); Quadrant (FIG. 5b) ([3]; Table 3, screen at 10 μM): Q2; Cherry-picked Hit (Suppl. Table 7) ([3]; hit classification in microglia HTS): HIT (Hits were defined as molecules that exhibited greater than 50% inhibition of either fibrin or LPS activation); IC50 ([4]; LPS assay): > 20 µM; IC50 ([4]; Table 3): > 20 µM; IC50 ([5]; Table 3): > 20 µM; IC50 ([5]; cFib assay): > 20 µM
9 | C[CH2][Hg][S]c1ccccc1C(=O)O [Ethylmercurithiosalicylic acid] |  |  | Q2 | 95% | 92% | 109% | 127% | 
10 | CC(NCCC(c1ccccc1)c1ccccc1)c1ccccc1 (stereo not drawn) [Fendiline hydrochloride, reference compound] | -33% | 10% | Q4 | 0% | 1% |  |  | pIC50 ([1]; Rattus norvegicus, Microglia, Table 7, read-out: fib_IC50): 5.76; pIC50 ([2]; Rattus norvegicus, Microglia, Table 7, read-out: LPS_IC50): 6.05; Quadrant (FIG. 5b) ([3]; Table 2, screen at 10 μM): Q4; Activity ([3]; Table 7, fib = fibrin, LPS, tox = toxicity): fib/LPS
11 | CC(C)(Oc1ccc(C(=O)c2ccc(Cl)cc2)cc1)C(=O)O [Fenofibric Acid] |  |  | Q4 |  |  |  |  | inhibition at 10 µM [1, 11]: 6%; inhibition at 10 µM [2, 12]: 9%; LPS % cell toxicity ([4]; toxicity = cell size <150 μm2): 0%; Fibrin % cell toxicity ([5]; toxicity = cell size <150 μm2): 1%
12 | CC(C(=O)O)c1cccc(Oc2ccccc2)c1 (stereo not drawn) [Fenoprofen] |  |  | Q4 |  |  |  |  | inhibition at 10 µM [1, 11]: -7%; inhibition at 10 µM [2, 12]: -4%; LPS % cell toxicity ([4]; toxicity = cell size <150 μm2): 0%; Fibrin % cell toxicity ([5]; toxicity = cell size <150 μm2): 0%
